Laboratory results as given in US6586425B2, “Cytoskeletal active agents for glaucoma therapy” (Wisconsin Alumni Research Foundation, priority 1996, dated 2003).

Experiments:
[1] = system: bovine aortic endothelial cells; experiment: Actin filaments and C-C adhesions in cultured endothelial cells; assay type: cell-based
living monkey eye = details: living monkeys; cited from earlier work

SMILES	effects on actin filaments and C-C adhesions ([1]; concentrations greater than 0.5 μM, 1 hour of exposure)	effects on actin filaments and C-C adhesions ([1]; lower concentrations)	potency relative to LAT-A (outflow facility) (living monkey eye) [times]
C/C1=C/C(=O)O[C@@H]2C[C@@H](CC[C@H](C)/C=C\C=C\CC1)O[C@@](O)([C@@H]1CSC(=O)N1)C2 [LAT-A]	unequivocal effects	more subtle slower onset effects	
C/C1=C/C(=O)O[C@@H]2C[C@@H](CC[C@H](C)/C=C\CC1)O[C@@](O)([C@@H]1CSC(=O)N1)C2 [LAT-B]			10
